From US7897565B2, “Compositions for HCV treatment” (priority 2004, dated 2011)
Non-standard residues stand in square brackets, D forms with d. Residues, ends and D or L forms follow the SMILES beside them. ξ: configuration not given here. ξNMeBmt = C/C=C/C[C@@H](C)[C@@H](O)C(NC)C(=O)O; NMeL = CN[C@@H](CC(C)C)C(=O)O; NMeV = CN[C@H](C(=O)O)C(C)C; NMeA = CN[C@@H](C)C(=O)O; Abu = CC[C@H](N)C(=O)O; Sar = CNCC(=O)O

Legend:
[1] = biological target: human recombinant cyclophilin (Homo sapiens, UniProt P62937); assay: competitive ELISA for binding to cyclophilin (Binding Ratio vs cyclosporin A); conditions: negative value = binding stronger than cyclosporin A
Procedure: A cyclosporin is considered as binding to cyclophilin if it binds to human recombinant cyclophilin at least one fifth as well as does cyclosporin A in the competitive ELISA test described by Quesniaux in Eur. J. Immunol. 1987 17:1359-1365. In this test, the cyclosporin to be tested is added during the incubation of cyclophilin with coated BSA-cyclosporin A and the concentration required to give a 50% inhibition of the control reaction without competitor is calculated (IC50). The results are expressed as the Binding Ratio (BR), which is the log to the base 10 of the ratio of the IC50 of the test compound and the IC50 in a simultaneous test of cyclosporin A itself.

[2] = system: HCV replicon cells clone A; assay: nine-day viral RNA reduction assay (quantitative RT-PCR); type: cell-based, hepatitis C virus
Procedure: Analysis of the effect of combination treatment, are examined using nine-day viral RNA reduction assays. HCV replicon cells clone A are treated with compounds in DMEM supplemented with 10% FBS and 0.2% DMSO for 3, 6, or 9 days, then the total intracellular RNA is extracted, and the level of HCV RNA is determined by real-time quantitative RT-PCR (Taqman) using HCV-specific primers and probe as described above. For each treatment, the quantity of HCV RNA is normalized against the amount of total RNA extracted, which is determined in a Quant-iT assay (Molecular Probe). The log reduction of HCV RNA is calculated by comparing the level of HCV RNA in compound-treated cells to that of untreated cells.

[3] = system: HCV replicon cells clone A; type: cell-based, hepatitis C virus; conditions: 1 mg/ml G418
Procedure: HCV replicon cells clone A are treated with various concentrations of NIM811 and BILN2061 either alone or in combination in the presence of 1 mg/ml G418.

[4] = system: Balb/c spleen cells; assay: Mixed Lymphocyte Reaction (MLR), activity relative to cyclosporin A; type: cell-based, mice
Description: Cyclosporins which bind strongly to cyclophilin but are not immunosuppressive have been identified. A cyclosporin is considered to be non-immunosuppressive when it has an activity in the Mixed Lymphocyte Reaction (MLR) of no more than 5%, preferably no more than 2%, that of cyclosporin A. The Mixed Lymphocyte Reaction is described by T. Meo in “Immunological Methods”, L. Lefkovits and B. Peris, Eds., Academic Press, N.Y. pp. 227-239 (1979). Spleen cells (0.5×10^6) from Balb/c mice (female, 8˜10 weeks) are co-incubated for 5 days with 0.5×10^6 irradiated (2000 rads) or mitomycin C treated spleen cells from CBA mice (female, 8˜10 weeks). The irradiated allogeneic cells induce a proliferative response in the Balb/c spleen cells which can be measured by labeled precursor incorporation into the DNA. […] The IC50 found for the test compound in the MLR is compared with that found for cyclosporin A in a parallel experiment. In addition, non-immunosuppressive cyclosporins lack the capacity of inhibiting CN and the downstream NF-AT pathway.

Sequence of human recombinant cyclophilin (P62937 whole entry): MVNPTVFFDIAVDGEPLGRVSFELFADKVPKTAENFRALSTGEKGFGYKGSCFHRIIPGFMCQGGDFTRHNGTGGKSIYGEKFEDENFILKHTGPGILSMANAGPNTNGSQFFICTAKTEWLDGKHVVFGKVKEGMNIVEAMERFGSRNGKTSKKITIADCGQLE

| Compound | BR (Binding Ratio): log to the base 10 of the ratio of the IC50 of the test compound and the IC50 of cyclosporin A [1] | IR (Immunosuppressive Ratio), percentage of the activity relative to Cyclosporin A [4] | also measured |
| --- | --- | --- | --- |
| C/C=C/C[C@@H](C)[C@@H](O)[C@H]1C(=O)N[C@@H](CC)C(=O)N(C)CC(=O)N(C)[C@@H]([C@@H](C)CC)C(=O)N[C@@H](C(C)C)C(=O)N(C)[C@@H](CC(C)C)C(=O)N[C@@H](C)C(=O)N[C@H](C)C(=O)N(C)[C@@H](CC(C)C)C(=O)N(C)[C@@H](CC(C)C)C(=O)N(C)[C@@H](C(C)C)C(=O)N1C [NIM811, [Melle]^4-Ciclosporin] | −0.2 |  | log reduction of HCV RNA ([2]; 0.5 μM NIM811 alone, 9 days of treatment): 1.2 log; log reduction of HCV RNA ([2]; 1 μM NIM811 alone, 9 days of treatment): greater than 3 log |
| COc1ccc2c(O[C@@H]3C[C@H]4C(=O)N[C@]5(C(=O)O)C[C@H]5/C=C\CCCCC[C@H](NC(=O)OC5CCCC5)C(=O)N4C3)cc(-c3csc(NC(C)C)n3)nc2c1 [BILN2061] |  |  | treatment time after which resistant colonies start to form [3]: 2 weeks |
| CC=CCC(C)C(O)C1C(=O)NC(CC)C(=O)N(C)CC(=O)N(C)C(C(C)C)C(=O)NC(C(C)C)C(=O)N(C)C(CC(C)C)C(=O)NC(C)C(=O)NC(C)C(=O)N(C)C(CC(C)C)C(=O)N(C)C(CC(C)C)C(=O)N(C)C(C(C)C)C(=O)N1C (stereo not shown) [[MeVal]^4-Ciclosporin] | 0.1 |  |  |
| C/C=C/C[C@@H](C)[C@@H](O)C1C(=O)N[C@@H](CC)C(=O)N(C)CC(=O)N(C)[C@@H](CC(C)C)C(=O)N[C@@H](C(C)C)C(=O)N(C)[C@@H](CC(C)C)C(=O)N[C@@H](C)C(=O)N[C@H](C)C(=O)N(C)[C@@H](CC(C)(C)O)C(=O)N(C)[C@@H](CC(C)C)C(=O)N(C)[C@@H](C(C)C)C(=O)N1C (stereo partly shown) [[γ-hydroxy-MeLeu]^9-Ciclosporin] | 0.15 | 2.9% |  |
| [Ethyl-Val]^4-Ciclosporin | 0 |  |  |
| C/C=C/C[C@@H](C)[C@@H](O)C1C(=O)N[C@@H](CC)C(=O)N(C)CC(=O)N(C)[C@@H](CC(C)C)C(=O)N[C@@H](C(C)C)C(=O)N(C)[C@@H](C)C(=O)N[C@@H](C)C(=O)N[C@H](C)C(=O)N(C)[C@@H](CC(C)C)C(=O)N(C)[C@@H](CC(C)C)C(=O)N(C)[C@@H](C(C)C)C(=O)N1C (stereo partly shown) [[MeAla]^6-Ciclosporin] (cyclo(A[dA][NMeL][NMeL][NMeV][ξNMeBmt][Abu][Sar][NMeL]V[NMeA])) | −0.4 | 3.2% |  |
| C/C=C/C[C@@H](C)[C@@H](O)C1C(=O)N[C@@H](CC)C(=O)N(C)CC(=O)N(C)[C@@H](CC(C)C)C(=O)N(C)[C@@H](C(C)C)C(=O)N(C)[C@@H](CC(C)C)C(=O)N[C@@H](C)C(=O)N[C@H](C)C(=O)N(C)[C@@H](CC(C)C)C(=O)N(C)[C@@H](CC(C)C)C(=O)N(C)[C@@H](C(C)C)C(=O)N1C (stereo partly shown) [[MeVal]^5-Ciclosporin] | 0.4 | 5.3% |  |
| [Ethyl-Ile]^4-Ciclosporin | 0.1 |  |  |
| IFN-α |  |  | log reduction of HCV RNA ([2]; 5 U/ml IFN-α alone, 9 days): 1.2 log |
| CC[C@@H]1NC(=O)C([C@H](O)[C@H](C)C/C=C/CO)N(C)C(=O)[C@H](C(C)C)N(C)C(=O)[C@H](CC(C)C)N(C)C(=O)[C@H](CC(C)C)N(C)C(=O)[C@@H](C)NC(=O)[C@H](C)NC(=O)[C@H](CC(C)C)N(C)C(=O)[C@H](C(C)C)NC(=O)[C@H](CC(C)C)N(C)C(=O)CN(C)C1=O (stereo partly shown) [[8′-hydroxy-MeBmt]^5-Ciclosporin] | 0.35 | 1.8% |  |
